Reference: ChEMBL document CHEMBL2406902, “Potent and Orally Bioavailable GPR142 Agonists as Novel Insulin Secretagogues for the Treatment of Type 2 Diabetes” (ACS Med Chem Lett, 2013)
pEC50, pIC50: −log10 of the molar value. Blank lines part the entries; values can stand above or below the molecule they belong to. Activity calls are given as the source filed them. No cut-off for these calls is given here.

Experiments:
[1] = Metabolic stability in mouse liver microsomes assessed as compound remaining at 1 uM after 15 mins by LC/MS analysis; format: ADME, Microsome; settings: read-out: Stability
[2] = target: T1, Probable G-protein coupled receptor 142 (Homo sapiens, UniProt Q7Z601); test: Agonist activity at human GPR142 transfected in HEK293 cells after 1 hr by inositol phosphate accumulation assay; format: functional, cell-based; settings: for pEC50: read-out: EC50
T1 sequence (Q7Z601 whole entry): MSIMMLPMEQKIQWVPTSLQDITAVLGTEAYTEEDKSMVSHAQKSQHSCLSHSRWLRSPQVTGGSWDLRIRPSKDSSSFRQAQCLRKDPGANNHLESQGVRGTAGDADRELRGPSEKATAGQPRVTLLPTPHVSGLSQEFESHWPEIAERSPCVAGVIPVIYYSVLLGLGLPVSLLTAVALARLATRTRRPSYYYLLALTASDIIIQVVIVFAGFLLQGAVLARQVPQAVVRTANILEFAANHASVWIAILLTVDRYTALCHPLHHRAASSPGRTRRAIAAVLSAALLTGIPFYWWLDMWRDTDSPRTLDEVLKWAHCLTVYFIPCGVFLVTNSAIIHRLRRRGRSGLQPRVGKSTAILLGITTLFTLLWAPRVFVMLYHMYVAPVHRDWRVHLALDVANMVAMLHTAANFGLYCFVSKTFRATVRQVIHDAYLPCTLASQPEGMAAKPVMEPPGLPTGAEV

Cynomolgus monkey [3] = test: Antidiabetic activity in cynomolgus monkey having impaired glucose tolerance assessed as decrease in blood glucose level at 10 mg/kg administered 60 mins for once a week followed by glucose challenge by OGTT; format: functional, organism-based; design: dose 10 mg/kg; settings: Macaca fascicularis
Mus musculus [4] = test: Antidiabetic activity in C57BL/6J mouse assessed as decrease in blood glucose level at 10 mg/kg administered 30 mins followed by glucose challenge by OGTT; format: functional, organism-based; design: dose 10 mg/kg
[5] = Metabolic stability in human liver microsomes assessed as compound remaining at 1 uM after 15 mins by LC/MS analysis; format: ADME, Microsome; settings: read-out: Stability
[6] = Metabolic stability in monkey liver microsomes assessed as compound remaining at 1 uM after 30 mins by LC/MS analysis; format: ADME, Macaca mulatta, Microsome; settings: rhesus monkey, read-out: Stability
[7] = Metabolic stability in human liver microsomes assessed as compound remaining at 1 uM after 30 mins by LC/MS analysis; format: ADME, Microsome; settings: read-out: Stability
[8] = Metabolic stability in rat liver microsomes assessed as compound remaining at 1 uM after 30 mins by LC/MS analysis; format: ADME, Microsome; settings: read-out: Stability
[9] = Permeability of the compound at pH 5 by PAMPA; format: ADME; settings: read-out: permeability
[10] = Permeability of the compound at pH 7.4 by PAMPA; format: ADME; settings: read-out: permeability
[11] = Lipophilicity, log D of the compound at pH 7.4; format: physicochemical; settings: buffer
Pancreatic islet [12] = test: Antidiabetic activity in rat primary pancreatic islets assessed as potentiation of insulin secretion under low glucose condition at 1 to 100 uM after 60 mins; format: functional
[13] = Volume of distribution at steady state in monkey at 0.5 mg/kg, iv; format: ADME, organism-based, Macaca mulatta; design: dose 0.5 mg/kg, route intravenous; settings: rhesus monkey, in vivo, read-out: Vdss
[14] = Oral bioavailability in monkey at 1 mg/kg; format: ADME, organism-based, Macaca mulatta; settings: rhesus monkey, in vivo
Mus musculus [15] = test: Antidiabetic activity in sc dosed mouse assessed as improvement of glucose tolerance; format: functional, organism-based
Pancreatic islet [16] = test: Antidiabetic activity in rat primary pancreatic islets assessed as potentiation of insulin secretion under high glucose condition at 1 to 100 uM after 60 mins; format: functional
[17] = Clearance in monkey at 0.5 mg/kg, iv; format: ADME, organism-based, Macaca mulatta; design: dose 0.5 mg/kg, route intravenous; settings: rhesus monkey, in vivo
Cynomolgus monkey [18] = test: Antidiabetic activity in cynomolgus monkey having impaired glucose tolerance assessed as decrease in blood glucose level at 10 mg/kg, po administered 60 mins for once a week followed by glucose challenge by OGTT; format: functional, organism-based; design: dose 10 mg/kg; settings: Macaca fascicularis
[19] = Half life in monkey at 1 mg/kg, po; format: ADME, organism-based, Macaca mulatta; design: dose 1 mg/kg, route oral; settings: rhesus monkey, in vivo
Mus musculus [20] = test: Antidiabetic activity in po dosed C57BL/6J mouse assessed as decrease in blood glucose level administered 30 mins followed by glucose challenge by OGTT; format: functional
Mus musculus [21] = test: Antidiabetic activity in po bolus dosed ob/ob mouse assessed as increase in plasma insulin level after 15 to 20 mins; format: functional, organism-based
Cytochrome P450 3A4 = Cytochrome P450 3A4 (Homo sapiens, UniProt P08684); test: Inhibition of CYP3A4 (unknown origin); format: ADME
Chain of Cytochrome P450 3A4 (P08684 whole entry): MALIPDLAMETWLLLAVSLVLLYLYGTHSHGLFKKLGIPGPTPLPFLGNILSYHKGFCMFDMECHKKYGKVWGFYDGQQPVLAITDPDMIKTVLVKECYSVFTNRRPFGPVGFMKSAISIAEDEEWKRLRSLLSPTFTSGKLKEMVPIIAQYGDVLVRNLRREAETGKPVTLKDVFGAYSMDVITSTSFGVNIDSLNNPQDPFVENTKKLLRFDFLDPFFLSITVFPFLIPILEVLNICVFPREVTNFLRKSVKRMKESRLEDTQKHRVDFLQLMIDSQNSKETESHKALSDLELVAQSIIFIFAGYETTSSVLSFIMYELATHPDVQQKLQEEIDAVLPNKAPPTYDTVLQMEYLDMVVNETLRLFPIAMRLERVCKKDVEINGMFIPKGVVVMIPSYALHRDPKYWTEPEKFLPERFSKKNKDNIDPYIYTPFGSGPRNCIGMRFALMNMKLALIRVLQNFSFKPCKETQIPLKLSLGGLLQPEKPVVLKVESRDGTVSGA

Cynomolgus monkey [22] = test: Antidiabetic activity in po dosed cynomolgus monkey having impaired glucose tolerance assessed as decrease in blood glucose level administered 60 mins for once a week followed by glucose challenge by OGTT; format: functional, organism-based; settings: Macaca fascicularis

SMILES: CCCCc1c(C(=O)NCc2ccnn2C)cnn1-c1ncc(C)c(-c2cccs2)n1
remaining at 0.25 h, 1 µM [1]: 13%
pEC50 [2]: 7.05

SMILES: CCCCc1c(C(=O)NCc2ccc(F)cc2)cnn1-c1ncc(C)c(-c2cccs2)n1
remaining at 0.25 h, 1 µM [1]: 2%
EC50 ([2]; hek293): Not Active

SMILES: CCCc1c(C(=O)NCc2cc(C)no2)cnn1-c1ncc(C)c(-c2cccs2)n1
remaining at 0.25 h, 1 µM [1]: 11%
pEC50 [2]: < 4.70

SMILES: CCCc1c(C(=O)NCc2cn(C)cn2)cnn1-c1ncc(C)c(-c2cccs2)n1
remaining at 0.25 h, 1 µM [1]: 4.7%
pEC50 [2]: 4.82

SMILES: N[C@@H](CC(=O)N1CCn2c(nnc2C(F)(F)F)C1)Cc1cc(F)c(F)cc1F
Activity (Cynomolgus monkey [3]): Active
Activity (Mus musculus [4]): Active

SMILES: CCCCCc1c(C(=O)NCc2ccncc2)cnn1-c1ncc(C)c(-c2cccs2)n1
pEC50 [2]: 6.00

SMILES: CCCCc1c(C(=O)NC2CCCc3ncn(C)c32)cnn1-c1ncc(C)c(-c2cccs2)n1 (stereo not given)
remaining at 0.25 h, 1 µM [1]: 5%
pEC50 [2]: 7.00
remaining at 0.25 h, 1 µM [5]: 22%

SMILES: CCCCc1c(C(=O)NCc2cncn2C)cnn1-c1ncc(C)c(-c2cccs2)n1
remaining at 0.25 h, 1 µM [1]: 56%
pEC50 [2]: 9.00
remaining at 0.5 h, 1 µM [6]: 40%
remaining at 0.5 h, 1 µM [7]: 74%
remaining at 0.25 h, 1 µM [5]: 70%
remaining at 0.5 h, 1 µM [8]: 54%
Papp [9]: 3.6 ×10⁻⁶ cm/s
Papp [10]: 8 ×10⁻⁶ cm/s

SMILES: CCOCc1c(C(=O)NCc2cncn2C)cnn1-c1ncc(C)c(N2CCC2)n1
pEC50 [2]: 7.55
remaining at 0.5 h, 1 µM [6]: 78%
remaining at 0.5 h, 1 µM [7]: 76%
Papp [9]: 0.2 ×10⁻⁶ cm/s
Papp [10]: 1.6 ×10⁻⁶ cm/s

SMILES: CCOCc1c(C(=O)NCc2cncn2C)cnn1-c1ncc(C)c(-c2cccs2)n1
pEC50 [2]: 8.89
remaining at 0.5 h, 1 µM [6]: 34%
remaining at 0.5 h, 1 µM [7]: 71%
logD [11]: 2.2
Papp [9]: 2 ×10⁻⁶ cm/s
Papp [10]: 4 ×10⁻⁶ cm/s

SMILES: COCc1c(C(=O)NCc2ccncc2)cnn1-c1ncc(C)c(-c2cccs2)n1
Activity (Pancreatic islet [12]): inactive
Vd [13]: 1 L/kg
remaining at 0.25 h, 1 µM [1]: 3%
bioavailability [14]: 3.9%
pEC50 [2]: 5.82
Activity (Mus musculus [15]): Active
Activity (Pancreatic islet [16]): Active
clearance [17]: 21.7 mL/min/kg

SMILES: CCOCc1c(C(=O)NCc2cncn2C)cnn1-c1ncc(C)c(OCC)n1
pEC50 [2]: 7.02
remaining at 0.5 h, 1 µM [6]: 66%
remaining at 0.5 h, 1 µM [7]: 77%
remaining at 0.5 h, 1 µM [8]: 77%
Papp [9]: 1.2 ×10⁻⁶ cm/s
Papp [10]: 2.9 ×10⁻⁶ cm/s

SMILES: CCCCc1c(C(=O)NCc2cncn2CC(=O)O)cnn1-c1ncc(C)c(-c2cccs2)n1
remaining at 0.25 h, 1 µM [1]: 93%
pEC50 [2]: 9.70

SMILES: CCCCc1c(C(=O)NCc2ccncc2)cnn1-c1ncc(C)c(-c2cccs2)n1
pEC50 [2]: 8.15

SMILES: CCCCc1c(C(=O)NCc2c[nH]c3ccccc23)cnn1-c1ncc(C)c(-c2cccs2)n1
pEC50 [2]: < 4.70

SMILES: CCOCc1c(C(=O)NCc2cncn2C)cnn1-c1ncc(C)c(NC2CCC2)n1
pEC50 [2]: 7.60
remaining at 0.5 h, 1 µM [6]: 68%
remaining at 0.5 h, 1 µM [7]: 87%
Papp [9]: 0.2 ×10⁻⁶ cm/s
Papp [10]: 1.6 ×10⁻⁶ cm/s

SMILES: CCCc1c(C(=O)NC(C)(C)c2ccncc2)cnn1-c1ncc(C)c(-c2cccs2)n1
remaining at 0.25 h, 1 µM [1]: 2%
pEC50 [2]: 8.30

SMILES: CCOCc1c(C(=O)NCc2cncn2C)cnn1-c1ncc(C)c(N2CCCCC2)n1
Activity (Cynomolgus monkey [18]): Active
Vd [13]: 0.77 L/kg
half-life [19]: 1.2 h
Activity (Mus musculus [20]): Dose-dependent effect
ED50 (Mus musculus [20]; 0.5 h): 3.3 mg/kg
bioavailability [14]: 26%
Activity (Mus musculus [21]): Dose-dependent effect
pEC50 [2]: 7.66
remaining at 0.5 h, 1 µM [6]: 61%
remaining at 0.5 h, 1 µM [7]: 88%
pIC50 (Cytochrome P450 3A4): 6.00
Activity (Cynomolgus monkey [22]): Dose-dependent effect
remaining at 0.5 h, 1 µM [8]: 53%
clearance [17]: 16.7 mL/min/kg
Papp [9]: 1.5 ×10⁻⁶ cm/s
Papp [10]: 3.5 ×10⁻⁶ cm/s

Continued by rising pEC50 [2], values first:

remaining at 0.25 h, 1 µM [1]: 0%
pEC50 [2]: 5.52
SMILES: CCCc1c(C(=O)N(CC)Cc2ccncc2)cnn1-c1ncc(C)c(-c2cccs2)n1

pEC50 [2]: 5.92
SMILES: CCC(C)c1c(C(=O)NCc2ccncc2)cnn1-c1ncc(C)c(-c2cccs2)n1 (stereo not given)

pEC50 [2]: 6.00
SMILES: CCc1c(C(=O)NCc2ccncc2)cnn1-c1ncc(C)c(-c2cccs2)n1

remaining at 0.25 h, 1 µM [1]: 1%
pEC50 [2]: 6.60
SMILES: CCCc1c(C(=O)NCc2ccncc2)cnn1-c1ncc(C)c(-c2cccs2)n1

remaining at 0.25 h, 1 µM [1]: 10%
pEC50 [2]: 6.70
SMILES: CCCCc1c(C(=O)NCc2sc(C)nc2C)cnn1-c1ncc(C)c(-c2cccs2)n1

pEC50 [2]: 7.52
SMILES: CCOCc1c(C(=O)NCc2ccncc2)cnn1-c1ncc(C)c(-c2cccs2)n1

remaining at 0.25 h, 1 µM [1]: 6%
pEC50 [2]: 7.52
remaining at 0.25 h, 1 µM [5]: 20%
SMILES: CCCCc1c(C(=O)NCc2cnc(C)n2C)cnn1-c1ncc(C)c(-c2cccs2)n1

pEC50 [2]: 7.85
remaining at 0.5 h, 1 µM [6]: 46%
remaining at 0.5 h, 1 µM [7]: 69%
logD [11]: 2
remaining at 0.5 h, 1 µM [8]: 66%
Papp [9]: 0.8 ×10⁻⁶ cm/s
Papp [10]: 3.1 ×10⁻⁶ cm/s
SMILES: CCOCc1c(C(=O)NCc2cncn2C)cnn1-c1ncc(C)c(N2CCCC2)n1

pEC50 [2]: 9.00
remaining at 0.25 h, 1 µM [5]: 19%
SMILES: CCCCc1c(C(=O)NCc2c(C)ncn2C)cnn1-c1ncc(C)c(-c2cccs2)n1
